In brackets after ≈: the same amount, converted by molar mass.
Legend:
Type in all cases: functional
Clostridium perfringens = experiment: Antibacterial activity against Clostridium perfringens ATCC 10388
Enterococcus faecium = experiment: Antibacterial activity against vancomycin-resistant Enterococcus faecium ATCC 700221
[1] = system: Staphylococcus epidermidis; experiment: Antibacterial activity against methicillin-resistant Staphylococcus epidermidis ATCC 51625
Bacteroides fragilis = experiment: Antibacterial activity against […] ATCC 23745
[2] = Ratio of MIC for Candida albicans ATCC 90028 to MIC for methicillin-resistant Staphylococcus aureus ATCC 33591
Staphylococcus aureus [3] = experiment: Antibacterial activity against multidrug resistant Staphylococcus aureus BAA-39
Staphylococcus aureus [4] = experiment: Antibacterial activity against Staphylococcus aureus ATCC 29213
Enterococcus faecalis = experiment: Antibacterial activity against vancomycin-resistant Enterococcus faecalis ATCC 51575
Bacillus subtilis = experiment: Antibacterial activity against Bacillus subtilis ATCC 23857
[5] = system: Staphylococcus epidermidis; experiment: Antibacterial activity against Staphylococcus epidermidis ATCC 12228
Bacillus cereus = experiment: Antibacterial activity against Bacillus cereus ATCC 11778
Streptococcus pneumoniae = experiment: Antibacterial activity against Streptococcus pneumoniae ATCC 6301
Candida albicans = experiment: Antifungal activity against Candida albicans ATCC 90028
Staphylococcus aureus [6] = experiment: Antibacterial activity against methicillin-resistant Staphylococcus aureus ATCC 33591
[7] = Ratio of MIC for Candida albicans ATCC 90028 to MIC for vancomycin-resistant Enterococcus faecium ATCC 700221

Q: With `CC(C)NC(=N)c1ccc2cc(-c3ccc(Oc4ccc(-c5cc6ccc(C(=N)NC(C)C)cc6[nH]5)cc4)cc3)[nH]c2c1` as the molecule, how does the MIC (Clostridium perfringens) read?
A: 0.5 µg/mL (≈ 0.879 µM)

Q: And the MIC (Enterococcus faecium)?
A: ≤ 0.06 µg/mL

Q: What about the MIC [1] of the same molecule?
A: ≤ 0.06 µg/mL

Q: And the MIC (Bacteroides fragilis)?
A: 0.125 µg/mL (≈ 0.22 µM)

Q: And the Ratio [2]?
A: 8

Q: And the MIC (Staphylococcus aureus [3])?
A: ≤ 0.06 µg/mL

Q: What about the MIC (Staphylococcus aureus [4]) of the same molecule?
A: 0.12 µg/mL (≈ 0.211 µM)

Q: What about the MIC (Enterococcus faecalis) of the same molecule?
A: 0.25 µg/mL (≈ 0.44 µM)

Q: What about the MIC (Bacillus subtilis) of the same molecule?
A: ≤ 0.06 µg/mL

Q: What about the MIC [5] of the same molecule?
A: ≤ 0.06 µg/mL

Q: What about the MIC (Bacillus cereus) of the same molecule?
A: ≤ 0.06 µg/mL

Q: And the MIC (Streptococcus pneumoniae)?
A: ≤ 0.06 µg/mL

Q: What about the MIC (Candida albicans) of the same molecule?
A: 0.5 µg/mL (≈ 0.879 µM)

Q: What about the MIC (Staphylococcus aureus [6]) of the same molecule?
A: ≤ 0.06 µg/mL

Q: Which results are given for `N=C(c1ccc2[nH]c(-c3ccc(Oc4ccc(-c5nc6cc(C(=N)N7CCSCC7)ccc6[nH]5)cc4)cc3)nc2c1)N1CCSCC1`?
A: Ratio [7]: 32; MIC (Clostridium perfringens): 1 µg/mL (≈ 1.52 µM); MIC (Enterococcus faecium): 0.5 µg/mL (≈ 0.759 µM); MIC [1]: 0.25 µg/mL (≈ 0.379 µM); MIC (Bacteroides fragilis): 4 µg/mL (≈ 6.07 µM); Ratio [2]: 32; MIC (Staphylococcus aureus [3]): 0.5 µg/mL (≈ 0.759 µM); MIC (Staphylococcus aureus [4]): 0.5 µg/mL (≈ 0.759 µM); MIC (Enterococcus faecalis): 0.5 µg/mL (≈ 0.759 µM); MIC (Bacillus subtilis): 0.25 µg/mL (≈ 0.379 µM); MIC [5]: 0.12 µg/mL (≈ 0.182 µM); MIC (Bacillus cereus): 0.5 µg/mL (≈ 0.759 µM); MIC (Streptococcus pneumoniae): 0.25 µg/mL (≈ 0.379 µM); MIC (Candida albicans): 16 µg/mL (≈ 24.3 µM); MIC (Staphylococcus aureus [6]): 0.25 µg/mL (≈ 0.379 µM)

Q: Which MIC (Clostridium perfringens) does the source give for `N=C(NC1CCCC1)c1ccc2[nH]c(-c3ccc(Oc4ccc(-c5nc6cc(C(=N)NC7CCCC7)ccc6[nH]5)cc4)cc3)nc2c1` here?
A: 0.25 µg/mL (≈ 0.401 µM)

Q: What about the MIC (Enterococcus faecium) of the same molecule?
A: < 0.06 µg/mL

Q: And the MIC [1]?
A: 0.12 µg/mL (≈ 0.193 µM)

Q: What about the MIC (Bacteroides fragilis) of the same molecule?
A: 32 µg/mL (≈ 51.4 µM)

Q: What about the MIC (Staphylococcus aureus [3]) of the same molecule?
A: 0.5 µg/mL (≈ 0.803 µM)

Q: What about the MIC (Staphylococcus aureus [4]) of the same molecule?
A: 0.25 µg/mL (≈ 0.401 µM)

Q: What about the MIC (Enterococcus faecalis) of the same molecule?
A: 0.25 µg/mL (≈ 0.401 µM)

Q: And the MIC (Bacillus subtilis)?
A: < 0.06 µg/mL

Q: And the MIC [5]?
A: 0.12 µg/mL (≈ 0.193 µM)

Q: And the MIC (Bacillus cereus)?
A: < 0.06 µg/mL

Q: And the MIC (Streptococcus pneumoniae)?
A: < 0.06 µg/mL

Q: What about the MIC (Candida albicans) of the same molecule?
A: 2 µg/mL (≈ 3.21 µM)

Q: And the MIC (Staphylococcus aureus [6])?
A: 0.5 µg/mL (≈ 0.803 µM)

Reference: ChEMBL document CHEMBL1153072, “Synthesis and structure-activity relationship of dicationic diaryl ethers as novel potent anti-MRSA and anti-VRE agents” (2009)
